Assay [1] deals with T1, Human PDGFRβ, cytoplasmic domain (GST-PDGFRβ) (Homo sapiens, UniProt P09619).
T1 construct: made in house
Briefly: Human PDGFRβ biochemical inhibition assay (off-chip Mobility Shift Assay). An outline of the steps:
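GST-tagged cytoplasmic domain (aa 557-1106) from baculovirus was incubated 1 h at room temperature with compound, CSKtide, ATP at Km and Mg²⁺ in HEPES buffer, pH 7.5. Phosphorylated and unphosphorylated peptide were separated by off-chip mobility shift, and the product ratio P/(P+S) gave percent inhibition.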

Assay [2] deals with T2, Human PDGFRα, cytoplasmic domain (GST-PDGFRα) (Homo sapiens, UniProt P16234).
T2 construct: made in house
In words: Human PDGFRα biochemical inhibition assay (off-chip Mobility Shift Assay).

In general, IC50 refers to the point on the concentration scale where inhibition reaches its midpoint.

T1 sequence (P09619 with tags, fused parts or gaps): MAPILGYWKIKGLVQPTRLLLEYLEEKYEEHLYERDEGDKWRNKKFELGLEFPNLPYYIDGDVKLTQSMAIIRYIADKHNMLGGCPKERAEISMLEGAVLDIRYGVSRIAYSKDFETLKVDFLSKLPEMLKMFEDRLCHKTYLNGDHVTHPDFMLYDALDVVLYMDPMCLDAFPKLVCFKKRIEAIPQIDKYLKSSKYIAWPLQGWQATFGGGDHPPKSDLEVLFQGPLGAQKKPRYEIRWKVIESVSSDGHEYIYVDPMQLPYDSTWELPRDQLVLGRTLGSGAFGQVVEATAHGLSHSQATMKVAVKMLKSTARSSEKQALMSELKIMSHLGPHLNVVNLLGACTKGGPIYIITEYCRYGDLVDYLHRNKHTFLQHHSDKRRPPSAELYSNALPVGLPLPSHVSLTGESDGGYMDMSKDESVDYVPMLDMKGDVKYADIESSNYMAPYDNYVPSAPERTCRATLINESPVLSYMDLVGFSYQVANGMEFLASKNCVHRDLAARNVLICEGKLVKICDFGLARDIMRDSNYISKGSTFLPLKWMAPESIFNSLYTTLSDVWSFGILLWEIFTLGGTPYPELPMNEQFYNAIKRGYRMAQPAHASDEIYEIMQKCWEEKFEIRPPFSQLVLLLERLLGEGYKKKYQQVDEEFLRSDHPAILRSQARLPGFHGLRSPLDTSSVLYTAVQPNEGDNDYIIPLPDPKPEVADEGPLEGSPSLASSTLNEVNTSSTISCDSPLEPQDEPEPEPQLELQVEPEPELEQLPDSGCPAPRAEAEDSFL
T2 sequence (P16234 550-1089 T674I): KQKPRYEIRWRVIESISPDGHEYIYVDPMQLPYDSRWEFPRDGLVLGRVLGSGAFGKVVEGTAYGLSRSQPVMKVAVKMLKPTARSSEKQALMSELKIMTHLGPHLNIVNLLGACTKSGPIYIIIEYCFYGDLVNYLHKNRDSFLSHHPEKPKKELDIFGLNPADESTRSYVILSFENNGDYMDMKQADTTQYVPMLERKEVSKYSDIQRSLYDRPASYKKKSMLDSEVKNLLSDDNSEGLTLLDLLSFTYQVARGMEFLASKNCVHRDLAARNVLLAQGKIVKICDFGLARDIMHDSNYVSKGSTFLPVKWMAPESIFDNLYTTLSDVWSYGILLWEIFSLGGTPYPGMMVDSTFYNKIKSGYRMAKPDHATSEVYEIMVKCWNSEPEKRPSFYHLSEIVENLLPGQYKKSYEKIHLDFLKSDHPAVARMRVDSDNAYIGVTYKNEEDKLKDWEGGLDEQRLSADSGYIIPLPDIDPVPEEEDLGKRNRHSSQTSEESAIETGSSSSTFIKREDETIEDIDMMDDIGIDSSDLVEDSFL

Consider `Cc1ccc(C(=O)Nc2cccc([C@H](C)Nc3cnc4cnn(C)c4n3)c2)s1` [Compound 133, (S)-5-methyl-N-(3-(1-((1-methyl-1H-pyrazolo[3,4-b]pyrazin-6-yl)amino)ethyl)phenyl)thiophene-2-carboxamide], for which the IC50 in assay [1] and in assay [2] was less than 300 nM in each case.
On to `Cc1cncc(NC(=O)Nc2cccc([C@H](C)Nc3cnc4cnn(C)c4n3)c2)c1` [Compound 731, (S)-1-(3-(1-((1-methyl-1H-pyrazolo[3,4-b]pyrazin-6-yl)amino)ethyl)phenyl)-3-(5-methylpyridin-3-yl)urea], for which the IC50 in assay [1] and in assay [2] was less than 300 nM throughout.
In the case of `Cc1cncc(C(=O)Nc2cccc([C@H](C)Nc3cnc4ccn(C)c4n3)c2)c1` [Compound 1, (S)-5-methyl-N-(3-(1-((5-methyl-5H-pyrrolo[2,3-b]pyrazin-3-yl)amino)ethyl)phenyl)nicotinamide], the IC50 in assay [1] and in assay [2] was less than 300 nM throughout.
Regarding `Cc1cncc(C(=O)Nc2cccc([C@H](C)Nc3cnc4cnn(-c5cnn(C)c5)c4n3)c2)c1` [Compound 186, (S)-5-methyl-N-(3-(1-((1-(1-methyl-1H-pyrazol-4-yl)-1H-pyrazolo[3,4-b]pyrazin-6-yl)amino)ethyl)phenyl) nicotinamide], the IC50 in assay [1] and in assay [2] was less than 300 nM in each case.
Take `CCn1cc2ncc(N[C@@H](C)c3cc(NC(=O)c4cnc(N5CCN(C)CC5)c(C)c4)ccc3C)nc2n1` [Compound 514, (S)-N-(3-(1-((2-ethyl-2H-pyrazolo[3,4-b]pyrazin-6-yl)amino)ethyl)-4-methylphenyl)-5-methyl-6-(4-methylpiperazin-1-yl)nicotinamide]: the IC50 in assay [1] and in assay [2] was less than 300 nM each time.
In the case of `CCn1cc2ncc(N[C@@H](C)c3cccc(NC(=O)Nc4cnn(CC(C)C)c4)c3)nc2n1` [Compound 740, (S)-1-(3-(1-((2-ethyl-2H-pyrazolo[3,4-b]pyrazin-6-yl)amino)ethyl)phenyl)-3-(1-isobutyl-1H-pyrazol-4-yl)urea], the half-inhibitory concentration (IC50) is 300 to 1000 nM in assay [1] and less than 300 nM in assay [2].
The matching figures for `CCn1cc2ncc(N[C@@H](C)c3cc(NC(=O)Cc4cnc(C5CC5)c(F)c4)ccc3C)nc2n1` [Compound 708, (S)-2-(6-cyclopropyl-5-fluoropyridin-3-yl)-N-(3-(1-((2-ethyl-2H-pyrazolo[3,4-b]pyrazin-6-yl)amino)ethyl)-4-methylphenyl)acetamide]: 300 to 1000 nM and less than 300 nM.
The like results for `CCn1cc2ncc(N[C@@H](C)c3cccc(NC(=O)c4ccc(NC)nc4)c3)nc2n1` [Compound 393, (S)-N-(3-(1-((2-ethyl-2H-pyrazolo[3,4-b]pyrazin-6-yl)amino)ethyl)phenyl)-6-(methylamino)nicotinamide] were, in that order, no less than 1000 nM and 300 to 1000 nM.
As to `CCn1cc2ncc(N[C@@H](C)c3cccc(NC(=O)Nc4cnc(N(C)C)c(C)c4)c3)nc2n1` [Compound 742, (S)-1-(6-(dimethylamino)-5-methylpyridin-3-yl)-3-(3-(1-((2-ethyl-2H-pyrazolo[3,4-b]pyrazin-6-yl)amino)ethyl)phenyl)urea], the IC50 in assay [1] and in assay [2] was less than 300 nM each time.
`Cc1cc(C(=O)Nc2cccc([C@H](C)Nc3cnc4cnn(C)c4n3)c2)cnc1C(F)(F)F` [Compound 125, (S)-5-methyl-N-(3-(1-((1-methyl-1H-pyrazolo[3,4-b]pyrazin-6-yl)amino)ethyl)phenyl)-6-(trifluoromethyl) nicotinamide]: the IC50 in assay [1] and in assay [2] was less than 300 nM each time.
For `CCn1cc2ncc(N[C@@H](C)c3cc(NC(=O)Cc4ccc(C(C)(C)F)cn4)ccc3F)nc2n1` [Compound 683, (S)-N-(3-(1-((2-ethyl-2H-pyrazolo[3,4-b]pyrazin-6-yl)amino)ethyl)-4-fluorophenyl)-2-(5-(2-fluoropropan-2-yl)pyridin-2-yl)acetamide], the figures for the IC50 in assay [1] and in assay [2] were no less than 1000 nM and 300 to 1000 nM, respectively.
In the case of `CCn1cc2ncc(N[C@@H](C)c3cc(NC(=O)Cc4ccccc4)ccc3F)nc2n1` [Compound 637, (S)-N-(3-(1-((2-ethyl-2H-pyrazolo[3,4-b]pyrazin-6-yl)amino)ethyl)-4-fluorophenyl)-2-phenylacetamide], the IC50 in assay [1] and in assay [2] was less than 300 nM throughout.
With `Cc1cncc(C(=O)Nc2cccc([C@H](C)Nc3cnc4cnn(C5CCOC5)c4n3)c2)c1` (stereo partly drawn) [Compound 182, 5-methyl-N-(3-((1S)-1-((1-(tetrahydrofuran-3-yl)-1H-pyrazolo[3,4-b]pyrazin-6-yl)amino)ethyl)phenyl) nicotinamide], the IC50 in assay [1] is no less than 1000 nM; in assay [2], less than 300 nM.
As to `C[C@H](Nc1cnc2[nH]cc(-c3cnn(C)c3)c2n1)c1cccc(NC(=O)c2cnn(C3CC3)c2)c1` [Compound 581, (S)-1-cyclopropyl-N-(3-(1-((7-(1-methyl-1H-pyrazol-4-yl)-5H-pyrrolo[2,3-b]pyrazin-2-yl)amino)ethyl)phenyl)-1H-pyrazole-4-carboxamide], the IC50 in assay [1] and in assay [2] was less than 300 nM in each case.
On to `Cc1cncc(C(=O)Nc2cccc([C@H](C)Nc3cnc4[nH]ncc4n3)c2)c1` [Compound 529, (S)-N-(3-(1-((1H-pyrazolo[3,4-b]pyrazin-5-yl)amino)ethyl)phenyl)-5-methylnicotinamide], for which the IC50 in assay [1] and in assay [2] was less than 300 nM throughout.
For the compound `Cc1cncc(C(=O)Nc2cccc([C@H](C)Nc3cnc4cn(CCF)nc4n3)c2)c1` [Compound 277, (S)-N-(3-(1-((2-(2-fluoroethyl)-2H-pyrazolo[3,4-b]pyrazin-6-yl)amino)ethyl)phenyl)-5-methylnicotinamide], the IC50 in assay [1] and in assay [2] was less than 300 nM each time.
Regarding `CCn1cc2ncc(N[C@@H](C)c3cccc(NC(=O)c4ccn(C(C)C)n4)c3)nc2n1` [Compound 305, (S)-N-(3-(1-((2-ethyl-2H-pyrazolo[3,4-b]pyrazin-6-yl)amino)ethyl)phenyl)-1-isopropyl-1H-pyrazole-3-carboxamide], the IC50 in assay [1] was 300 to 1000 nM; in assay [2] it was less than 300 nM.
The matching figures for `Cc1cncc(C(=O)Nc2cccc([C@H](C)Nc3cnc4cn(CC(C)C)nc4n3)c2)c1` [Compound 276, (S)-N-(3-(1-((2-isobutyl-2H-pyrazolo[3,4-b]pyrazin-6-yl)amino)ethyl)phenyl)-5-methylnicotinamide]: 300 to 1000 nM and 300 to 1000 nM.
The like results for `CCn1cc2ncc(N[C@@H](C)c3cccc(NC(=O)c4ccc(CN5CC[C@H](F)C5)c(Cl)c4)c3)nc2n1` [Compound 484, 3-chloro-N-(3-((S)-1-((2-ethyl-2H-pyrazolo[3,4-b]pyrazin-6-yl)amino)ethyl)phenyl)-4-(((S)-3-fluoropyrrolidin-1-yl)methyl) benzamide] were, in that order, less than 300 nM and less than 300 nM.
Regarding `CCn1cc2ncc(N[C@@H](C)c3cccc(NC(=O)c4ccc(Cl)c(C)c4)c3)nc2n1` [Compound 345, (S)-4-chloro-N-(3-(1-((2-ethyl-2H-pyrazolo[3,4-b]pyrazin-6-yl)amino)ethyl)phenyl)-3-methylbenzamide], the IC50 in assay [1] and in assay [2] was less than 300 nM in each case.

Source of the values: patent US20230102554A1 (GB002, INC., priority 2019, published 2023).
